The numbers were not newly measured in publication PMC6915728 (Nature Communications, 2019), which cites them from elsewhere.

Read-outs that look alike come from different tables or passages of the source.

The test system of data set [1] is E. coli. The conditions noted are these: previous laboratory evolution experiment; cited from earlier work. From the text:
The results presented in this study may have important implications for the development of AMP-based therapies. Previous works reported several instances of cross-resistance interactions between membrane-targeting peptides (Supplementary Data 1), however, the potential for cross-resistance across AMPs with different modes of action has remained poorly understood. Specifically, while cross-resistance between host and therapeutic AMPs is certainly a realistic danger, not all AMPs are equally prone to cross-resistance. Given the immense diversity of AMPs with major differences in physicochemical ...

Data set [2] deals with bacterial species in which the gene showed activity. Conditions: cited from earlier work.
[3] abbreviates: Bordetella pertussis, ref http://www.ncbi.nlm.nih.gov/pmc/articles/PMC4136009/.
The mark [4] stands for this setting: Klebsiella pneumoniae, ref http://iai.asm.org/content/72/12/7107.full.pdf+html.
Setting [5] is: Pseudomonas aeruginosa, Salmonella typhimurium, Escherichia coli, ref http://www.sciencemag.org/content/286/5444/1561.full.pdf, http://onlinelibrary.wiley.com/doi/10.1111/j.1365-2958.1995.tb02299.x/abstract, http://www.ncbi.nlm.nih.gov/pmc/articles/PMC50673/pdf/pnas01098-0300.pdf, https://jb.asm.org/content/jb/182/14/4077.full.pdf.
[6] abbreviates: Salmonella enterica serovar Typhimurium, ref http://www.microbiologyresearch.org/docserver/fulltext/micro/154/2/666.pdf?expires=1487718158&id=id&accname=guest&checksum=D8B884D02A8B2A8619216A48E0826377.
Where [7] appears, read: Salmonella typhimurium, Escherichia coli, ref https://www.ncbi.nlm.nih.gov/pmc/articles/PMC3037666/, https://www.ncbi.nlm.nih.gov/pmc/articles/PMC3837802/pdf/zam7770.pdf.

For the sequence “RWCFRVCYRGICYRKCR [TPII, Tachyplesin II, antimicrobial peptide from Japanese horseshoe crab; disrupts cell membrane; cluster C1]”, the “Emergence of resistant lines in laboratory evolution” value in data set [1] was “did not result in any significant resistant lines”.

“KTKKKFLKKT [PXB, Polymyxin B, from Bacillus polymyxa, purchased from Sigma-Aldrich; disrupts cell membrane; cluster C1]”: the “Gene that modulates bacterial susceptibility to the AMP” value in data set [2] (Acinetobacter baumannii, ref http://aac.asm.org/content/54/12/4971.full.pdf+html) is recorded as “lpxA”; in data set [2] (setting [3]), “lgmA, IgmB, IgmC”; in data set [2] (Burkholderia genus, ref http://www.ncbi.nlm.nih.gov/pmc/articles/PMC3143681/, http://www.ncbi.nlm.nih.gov/pmc/articles/PMC1428139/) it was “waaF”; in data set [2] (Campylobacter jejuni, ref http://www.ncbi.nlm.nih.gov/pmc/articles/PMC3270987/), “eptC”; in data set [2] (Escherichia coli, Klebsiella pneumoniae, Pseudomonas aeruginosa, Kluyvera ascorbata, ref http://www.ncbi.nlm.nih.gov/pubmed/26603172, http://ac.els-cdn.com/S1473309915005332/1-s2.0-S1473309915005332-main.pdf?_tid=16a7f944-6944-11e6-8a9d-00000aab0f02&acdnat=1471965364_7f481026d1a49114e23adef4a6b4d1a9, https://www.ncbi.nlm.nih.gov/pmc/articles/PMC5119035/), “mcr1”; in data set [2] (Escherichia coli, Salmonella sp., Pseudomonas aeruginosa, ref https://ac.els-cdn.com/S0923250806000532/1-s2.0-S0923250806000532-main.pdf?_tid=eafe08ea-d0fa-11e7-b1a6-00000aacb35f&acdnat=1511516356_5b16dbb059dc1cc9bc53dd73456e437d), “etk”. Also, the “Gene that modulates bacterial susceptibility to the AMP” value is “arnD” in data set [2] (Escherichia coli, ref http://www.jbc.org/content/287/46/38778.full.pdf, http://www.jbc.org/content/early/2007/10/10/jbc.M706172200.full.pdf, https://onlinelibrary.wiley.com/doi/epdf/10.1111/j.1365-2958.2012.08154.x); “lpxE” in data set [2] (Helicobacter pylori, ref http://www.ncbi.nlm.nih.gov/pmc/articles/PMC1482963/); “cps” in data set [2] (setting [4]); “mgrB” in data set [2] (Klebsiella pneumoniae, ref http://jac.oxfordjournals.org/content/70/1/75.full.pdf+html, http://embomolmed.embopress.org/content/9/4/430.long); “acrB” in data set [2] (Klebsiella pneumoniae, ref http://www.ncbi.nlm.nih.gov/pmc/articles/PMC2798511/); “mtrC, mtrD, mtrE” in data set [2] (Neisseria meningitidis, Neisseria gonorrhoeae, ref http://www.ncbi.nlm.nih.gov/pmc/articles/PMC1196002/). In addition, the “Gene that modulates bacterial susceptibility to the AMP” value was “lptA” in data set [2] (Neisseria meningitidis, ref https://www.ncbi.nlm.nih.gov/pmc/articles/PMC1196002/); “lpxL1” in data set [2] (Neisseria meningitidis, ref https://www.ncbi.nlm.nih.gov/pmc/articles/PMC1196002/pdf/0005-05.pdf); “qseB (pmrA)” in data set [2] (Parasutterella excrementihominis, ref https://utmb.influuent.utsystem.edu/en/publications/quorum-sensing-escherichia-coli-regulators-b-and-c-qsebc-a-novel-); “lpxF” in data set [2] (Porphyromonas gingivalis, ref https://www.nature.com/articles/ijos200918.pdf?origin=ppub, https://www.ncbi.nlm.nih.gov/pmc/articles/PMC4388331/pdf/nihms-656041.pdf); “phoP (PhoPQ)” in data set [2] (setting [5]); “colR (ColRS)” in data set [2] (Pseudomonas aeruginosa, gene colR (ColRS), ref https://www.ncbi.nlm.nih.gov/pmc/articles/PMC4244539/pdf/fmicb-05-00643.pdf, http://aac.asm.org/content/57/5/2204.full.pdf+html). Moreover, the “Gene that modulates bacterial susceptibility to the AMP” value in data set [2] (Pseudomonas aeruginosa, gene cprR (CprRS), ref https://www.ncbi.nlm.nih.gov/pmc/articles/PMC4244539/pdf/fmicb-05-00643.pdf, http://aac.asm.org/content/57/5/2204.full.pdf+html) is listed as “cprR (CprRS)”; in data set [2] (Pseudomonas aeruginosa, ref http://aac.asm.org/content/54/8/3372.full.pdf+html, http://aac.asm.org/content/56/12/6212.full.pdf+html, http://aac.asm.org/content/57/5/2204.full.pdf+html) it was “parR (ParR-ParS)”; in data set [2] (Pseudomonas aeruginosa, ref http://jb.asm.org/content/186/2/575.long), “pmrB”; in data set [2] (Salmonella enterica serovar Typhimurium, ref http://www.jbc.org/content/279/37/38618.long, https://onlinelibrary.wiley.com/doi/epdf/10.1111/j.1365-2958.2005.04553.x), “slyA”; in data set [2] (Salmonella enterica serovar Typhimurium, ref http://www.jbc.org/content/279/37/38618.long), “ugtL”; in data set [2] (setting [6]), “yejA”. Also, the “Gene that modulates bacterial susceptibility to the AMP” value in data set [2] (Salmonella sp., ref https://www.ncbi.nlm.nih.gov/pmc/articles/PMC2904496/) is on record as “eptA”; in data set [2] (setting [7]), “cpxA (CpxA/CpxR)”; in data set [2] (Salmonella typhimurium, gene pmrF (arnT operon), ref http://www.jbc.org/content/287/46/38778.full.pdf), “pmrF (arnT operon)”; in data set [2] (Salmonella typhimurium, gene yfbG (arnA), ref http://www.jbc.org/content/287/46/38778.full.pdf), “yfbG (arnA)”; in data set [2] (Salmonella typhimurium, ref https://www.ncbi.nlm.nih.gov/pmc/articles/PMC205548/pdf/jbacter00030-0157.pdf) it was “pmrD”; in data set [2] (Staphylococcus aureus, ref http://aac.asm.org/content/51/8/2679.full.pdf+html) it was “graR(GraRS)”. Besides, the “Gene that modulates bacterial susceptibility to the AMP” value was “almE, almF, almG” in data set [2] (Vibrio cholerae, ref http://pubs.acs.org/doi/pdf/10.1021/cb500438x); “rosA” in data set [2] (Yersinia sp., ref http://www.helsinki.fi/yersinia/pdf_own/Bengo_MolMic_2000_37_67.pdf); “rcp (pagP) and pmm and bveA (BMEII0681)” in data set [2]; “rcsB” in data set [2] (pathogenic or commensal Enterobacteriaceae species, gene rcsB, ref https://www.ncbi.nlm.nih.gov/pmc/articles/PMC2895427/pdf/nihms212407.pdf); “rcsC” in data set [2] (pathogenic or commensal Enterobacteriaceae species, gene rcsC, ref https://www.ncbi.nlm.nih.gov/pmc/articles/PMC2895427/pdf/nihms212407.pdf); “rcsD” in data set [2] (pathogenic or commensal Enterobacteriaceae species, gene rcsD, ref https://www.ncbi.nlm.nih.gov/pmc/articles/PMC2895427/pdf/nihms212407.pdf).

For the sequence “TSSPPAAVVVRRRRRRRRRRRRRRRRRRR [PROA, Protamine, source herring, purchased from Sigma-Aldrich; cluster C3]”, the “Gene that modulates bacterial susceptibility to the AMP” value in data set [2] (Burkholderia cenocepacia, ref http://www.microbiologyresearch.org/docserver/fulltext/micro/155/9/2818.pdf?expires=1468919235&id=id&accname=guest&checksum=2CEA64BA8195145BE72C98BB20076627) is “zmpA”; in data set [2] (Burkholderia cenocepacia, ref http://www.microbiologyresearch.org/docserver/fulltext/micro/155/9/2818.pdf?expires=1468919235&id=id&accname=guest&checksum=2CEA64BA8195145BE72C98BB20076628), “zmpB”; in data set [2] (Enterobacteriaceae, ref https://www.ncbi.nlm.nih.gov/pmc/articles/PMC3264287/, https://onlinelibrary.wiley.com/doi/full/10.1111/j.1348-0421.2010.00238.x, https://jb.asm.org/content/180/15/4002.full), “ompT”; in data set [2] (setting [4]) it was “cps”; in data set [2] (Proteus mirabilis, ref http://aac.asm.org/content/45/7/2030.long), “sapD”; in data set [2] (setting [5]) it was “phoP (PhoPQ)”. The “Gene that modulates bacterial susceptibility to the AMP” value is “hemC (hem operon)” in data set [2] (Salmonella Typhimurium LT2, ref https://doi.org/10.1093/jac/dkq059); “yejA” in data set [2] (setting [6]); “sapA” in data set [2] (Salmonella enterica, Escherichia coli, ref http://www.ncbi.nlm.nih.gov/pmc/articles/PMC395316/pdf/emboj00065-0046.pdf http://www.ncbi.nlm.nih.gov/pmc/articles/PMC538956/pdf/1013-04.pd); “cpxA (CpxA/CpxR)” in data set [2] (setting [7]); “amiA, amiC” in data set [2] (Salmonella typhimurium, Escherichia coli, ref https://www.ncbi.nlm.nih.gov/pmc/articles/PMC3037666/, https://www.ncbi.nlm.nih.gov/pmc/articles/PMC4808223/); “tatA” in data set [2] (Salmonella typhimurium, ref https://www.ncbi.nlm.nih.gov/pmc/articles/PMC3037666/). Besides, the “Gene that modulates bacterial susceptibility to the AMP” value in data set [2] (Staphylococcus aureus, SalmonellaTyphimurium, ref http://ac.els-cdn.com/S0022202X15369608/1-s2.0-S0022202X15369608-main.pdf?_tid=6fa51c80-693e-11e6-b18c-00000aacb362&acdnat=1471962936_8118358d97a056d7d78b5e8b4ca8d03b, https://www.sciencedirect.com/science/article/pii/S0928824401002917) is “hemB”.

For the sequence “ILPWKWPWWPWRR [IND, Indolicidin, antimicrobial peptide from bovine neutrophils; cluster C3]”, the “Gene that modulates bacterial susceptibility to the AMP” value is “lgmA, IgmB, IgmC” in data set [2] (setting [3]) and “apsS” in data set [2] (Staphylococcus aureus, ref http://onlinelibrary.wiley.com/doi/10.1111/j.1365-2958.2007.05986.x/epdf).
